Measured values from patent US6756526B2, “Drought tolerant plants and methods of increasing drought tolerance in plants” (Kansas State University Research Foundation, priority 2001, dated 2004).
“Also recorded” adds a separate entry of the source.

How the values were obtained:
guard cell protoplasts = conditions: PA applied to guard cell protoplasts; cited from earlier work
[1] = tested on: protoplasts of barley aleurone and Vicia faba guard cells; conditions: cited from earlier work
[2] = tested on: wild-type Arabidopsis leaves; assay: Stomatal closure measured as diffusion resistance (steady state porometer) in detached leaves incubated with ABA; assay type: in vivo, Arabidopsis thaliana
Experimental: (§1) The depletion of PLDα in guard cells provides a means of assessing the role of PLD in stomatal movement. Stomatal closure was determined by measuring diffusion resistance using a steady-state porometer. Briefly, detached Arabidopsis leaves were floated with the abaxial side downward in a solution containing 5 mM MES-KOH (pH 6.1), 22 mM KCl, and 1 mM CaCl2 for 1 hour under the same light conditions used for growing plants. Leaves then were incubated without or with ABA at indicated concentrations. ABA was made as a 10 mM stock solution in 5% dimethyl sulfoxide (DMSO), and the same amount of DMSO (0.005%) was also added to the control solution in all treatments. Stomatal aperture of detached leaves was measured as diffusion resistance with a steady state porometer using the method of Thimann and S. O. Satler, Relation Between Leaf Senescence and Stomatal Closure: Senescence in Light, 76 Proc. Natl. Acad. Sci. USA, 2295-2298 (1979). For tobacco plants, leaf diffusion resistance was also measured in leaves attached to approximately 2-month-old plants following foliar spraying of ABA at indicated concentrations. Changes in diffusion resistance in response to ABA in both detached and intact leaves were monitored at indicated time intervals. Before drought treatment was imposed, Arabidopsis plants were grown in a greenhouse for 6-8 weeks and watered regularly. Soil water content in each pot was adjusted to approximately the same level before drought treatment. Plants were subjected to drought by withholding irrigation and the soil surface in each pot was covered with plastic wraps to minimize evaporation. Soil moisture in the 0-20 cm soil layer was monitored during drought using a time domain reflectometer. When ABA (10 μM) was sprayed on plants in some treatments, control groups of plants were sprayed with water in the same amount as for the ABA treatment. Leaves were collected at various times of drought treatment, and leaf water potential (ψw) was measured with a thermocouple psychrometer.
(§2) Detached Arabidopsis leaves were floated with the abaxial side downward in a solution containing 5 mM MES-KOH (pH 6.1), 22 mM KCl, and 1 mM CaCl2 for 1 hour under the same light conditions used for growing plants. Leaves then were incubated without or with ABA at indicated concentrations. ABA was made as a 10 mM stock solution in 5% dimethyl sulfoxide (DMSO), and the same amount of DMSO (0.005%) was also added to the control solution in all treatments. Stomatal aperture was measured as diffusion resistance with a steady state porometer (Li-COR 1600, Lincoln, Nebr.). The porometer was set for aperture of 0.5 cm^2, pressure of 100 pa, and relative humidity of 30%. Changes in diffusion resistance were monitored on plants at indicated time intervals.

[3] = tested on: PLDα-depleted (antisense) Arabidopsis leaves; assay: as above; assay type: in vivo, Arabidopsis thaliana; conditions: PLDα-suppressed leaves
Experimental: as §1, §2

PLD = conditions: tissues or guard cells treated with ABA; cited from earlier work
[4] = tested on: wild-type Arabidopsis plants; assay: Progressive drought by withholding irrigation, with ABA spray; assay type: in vivo, Arabidopsis thaliana; conditions: ABA 10 μM sprayed once a day, wild-type plants under drought
Experimental: as §1, with “Before drought treatment was imposed, Arabidopsis plants were grown in a greenhouse for 6-8 weeks and watered regularly. Soil water content in each pot was adjusted to approximately the same level before drought treatment. Plants were subjected to drought by withholding irrigation and the soil surface in each pot was covered with plastic wraps to minimize evaporation.” left out, “When ABA (10 μM) was sprayed on plants in some treatments, control groups of plants were sprayed with water in the same amount as for the ABA treatment. Leaves were collected at various times of drought treatment, and leaf water potential (ψw) was measured with a thermocouple psychrometer.” left out

[5] = tested on: PLDα-deficient Arabidopsis plants; assay: as above; assay type: in vivo, Arabidopsis thaliana; conditions: ABA 10 μM sprayed once a day, PLDα-deficient plants under drought
Experimental: as §1, with “Before drought treatment was imposed, Arabidopsis plants were grown in a greenhouse for 6-8 weeks and watered regularly. Soil water content in each pot was adjusted to approximately the same level before drought treatment. Plants were subjected to drought by withholding irrigation and the soil surface in each pot was covered with plastic wraps to minimize evaporation.” left out, “When ABA (10 μM) was sprayed on plants in some treatments, control groups of plants were sprayed with water in the same amount as for the ABA treatment. Leaves were collected at various times of drought treatment, and leaf water potential (ψw) was measured with a thermocouple psychrometer.” left out

[6] = tested on: control tobacco plants (empty vector); assay: Leaf diffusion resistance measured directly on plants after foliar ABA spray; assay type: in vivo, Nicotiana tabacum; conditions: 2.5 and 5 μM ABA sprayed, 20 minutes after application, relative to plants sprayed with water
Experimental: as §1, with “Before drought treatment was imposed, Arabidopsis plants were grown in a greenhouse for 6-8 weeks and watered regularly. Soil water content in each pot was adjusted to approximately the same level before drought treatment. Plants were subjected to drought by withholding irrigation and the soil surface in each pot was covered with plastic wraps to minimize evaporation.” left out, “When ABA (10 μM) was sprayed on plants in some treatments, control groups of plants were sprayed with water in the same amount as for the ABA treatment. Leaves were collected at various times of drought treatment, and leaf water potential (ψw) was measured with a thermocouple psychrometer.” left out

## phosphatidic acid [PA]
Guard cell protoplasts
  ionic efflux: increase in ionic efflux
[1]
  effect of PA addition compared with ABA: partially mimicked the effect of ABA

## CC1=CC(=O)CC(C)(C)[C@@]1(O)/C=C/C(C)=C\C(=O)O [ABA, abscisic acid]
[2]; 2 μM ABA, wild-type leaves
  effect on stomatal closure: stimulated stomatal closure
[2]; 10 μM ABA, detached wild-type leaves
  increase in diffusion resistance (stomatal closure): approximately twofold
[2]; 10 μM ABA, wild-type
  persistence of the ABA effect on diffusion resistance: more than 30 minutes
[3]; 2 μM ABA
  effect on stomatal closure: no effect
[3]; 10 μM ABA
  ABA-induced increase in diffusion resistance, relative to that observed in wild-type leaves: approximately 50%
[3]; 0.5-50 μM ABA tested, 20 minutes
  ABA concentration at which diffusion resistance reached a plateau: > 50 µM
PLD
  PLD activity (and gene expression) after ABA: increased; also recorded: increases PLD activity
[4]
  effect on drought resistance (leaf turgidity, leaf water potential, soil water content): enhanced resistance to drought; also recorded: improves this drought resistance
[5]
  effect on water loss and drought resistance: no detectable effect
[6]
  increase in leaf diffusion resistance: about 30%
